Structures can show the parent of a compound that is named as a salt.
System: Ovarian TICs (Ovarian 2393A)
Experiment: Ovarian tumor-initiating cell growth inhibition, Alamar Blue assay
Format: cell-based
Conditions: 144 h, read-out: Tumor Initiating Cell GI50 Range Ovarian 2393A
From the text: Materials and Methods: Non-tissue or tissure cultured treated T-75 flask and 96-well plates were purchased from VWR. Vitamin B-27 supplement, MEM NEAA (minimum essential medium non-essential amino acids), sodium pyruvate, L-glutamine, N2 supplement, penicillin-streptomycin and fungizone/amphotericin B were obtained from Invitrogen. Lipid mixture, heparin and EGF were purchased from Sigma; bFGF from BD Biosciences. Tumor Initiating Cells (TICs) from colon were routinely maintained using non-tissue cultured treated T-75 flasks in DMEM:F12 medium containing 0.2×B-27 supplement, 4 ug/ml heparin, 1×MEM NEAA, 1×sodium pyruvate, 1 mM glutamine, 10 pg/ul bFGF, 20 pg/ul EGF, 1× N2 supplement, lipid mixture, penicillin-streptomycin and fungizone/amphotericin B. Ovarian TICs were routinely maintained using tissue cultured treated T-75 flasks in DMEM:F12 medium containing 1×B-27 supplement, 4 ug/ml heparin, 20 pg/ul bFGF, 20 pg/ul EGF and penicillin-streptomycin. Assay Protocol: Compounds described herein were dissolved in DMSO and further diluted in cell culture medium for GI50 determination. […] Cell viability was assessed by Alamar Blue assay: 10 ul of Alamar Blue was added into each well. After 4 hours incubation at 37° C., fluorescence was recorded at excitation 544 and emission 590. GI50 (Growth inhibition) was calculated using GraphPad Prism 4.0 software. […]

**Q.** How did the GI50 turn out when `Cc1cc(-c2cnn3c(NC[C@H]4C[C@@](C)(O)C4)cc(Oc4cccnc4)nc23)ccc1C(=O)NC1CC1` [Example A4, N-cyclopropyl-4-(7-((((1s,3s)-3-hydroxy-3-methylcyclobutyl)methyl)amino-5-(pyridin-3-yloxy)pyrazolo[1,5-a]pyrimidin-3-yl)-2-methylbenzamide hydrochloride and itsfreebase] was run?
**A.** Its GI50 is less than 100 nM.

Reference: patent publication US9657025B2, “Pyrazolopyrimidine compounds” (University Health Network, priority 2013, dated 2017)
